Common to all, as to test: growth of human tumour cells (NCI), 48 h
In test [1] the test system is HOP-62.
For test [2], the system named is SF-539.
Test [3] concerns IGROV-1.
Test [4] concerns Malme-3M.
Test [5] concerns MDA-MB-231.
In test [6] the test system is UACC-257.
Test [7] has as its system HCT-15.
Test [8] concerns MCF7.
The subject of test [9] is SF-295.
Test [10] has as its system NCI-H522.
In test [11] the test system is SK-MEL-5.
Test [12] has as its system LOX IMVI.
The subject of test [13] is CCRF-CEM.
In test [14] the test system is HL-60.
Test [15] concerns SK-MEL-2.
The test system of test [16] is 786-0.
Test [17] has as its system MDA-MB-435.
Test [18] has as its system M14.
Test [19] concerns RPMI-8226.
The subject of test [20] is OVCAR-3.

The values below come from ChEMBL document CHEMBL1201862, “PubChem BioAssay data set” (2004).

SMILES strings stand for the structures.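 Protocol summary: plate cells (96-well), add compound at 5 concentrations, incubate 48 h, interpolate endpoints linearly. Abbreviation: GI50, concentration required for 50% inhibition of growth.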 The source made the active and inactive calls. Cut-off read from the data, not from the text of the source: active = GI50 up to about 1.1 µM and inactive = higher. A value given as a limit tells only on which side of the number the result lay.

As to `CCOC(=O)C(C)(C)Oc1ccc(Cl)cc1` [CLOFIBRATE], the GI50 in test [1] is > 1000 µM (inactive); in test [2], 366 µM (inactive); in [3], 461 µM (inactive); in test [4], 215 µM (inactive); in test [5], > 1000 µM (inactive); in [6] it was 177 µM (inactive). The GI50 in test [7] is 435 µM; in test [8], 325 µM (inactive); in [9], 319 µM (inactive); in test [10], 435 µM (inactive); in test [11], 147 µM (inactive); in [12], 156 µM (inactive). The GI50 in test [13] was 596 µM (inactive); in test [14], > 1000 µM (inactive); in test [15], 173 µM (inactive); in [16] it was 462 µM (inactive); in [17], 601 µM (inactive); in [18], > 1000 µM (inactive).
With `CC(=O)/C(=C\I)c1ccccc1`, the GI50 in test [1] was 23.1 µM (inactive); in [2], 18 µM (inactive); in test [3] it was 2.1 µM (inactive); in test [4] it was 1.67 µM (inactive); in [5], 1.85 µM (inactive); in test [6], 3.04 µM (inactive). In addition, the GI50 in [7] is 1.83 µM; in [8] it was 1.8 µM (inactive); in test [9], 19.1 µM (inactive); in test [12] it was 1.67 µM (inactive); in test [13], 1.97 µM (inactive); in test [14] it was 1.08 µM (active). For the same molecule, the GI50 in test [15] was 2.6 µM (inactive); in test [16], 2.12 µM (inactive); in test [19], 2.03 µM (inactive); in test [17] it was 3.86 µM (inactive); in test [20], 1.7 µM (inactive); in test [18] it was 2.31 µM (inactive).
As for `O=[N+]([O-])c1ccc2nc3ccc([N+](=O)[O-])cn3c2c1`, the GI50 was 17.6 µM (inactive) in test [1]; 52.6 µM (inactive) in test [2]; 97.1 µM (inactive) in test [3]; 92.5 µM (inactive) in test [4]; 33 µM (inactive) in test [5]; > 100 µM (inactive) in test [6]. In addition, the GI50 in test [7] is above 100 µM; in test [8], 63.7 µM (inactive); in [9], > 100 µM (inactive); in test [10], 23.7 µM (inactive); in [11], > 100 µM (inactive); in test [12], 85.1 µM (inactive). The GI50 in test [13] was > 100 µM (inactive); in test [14], > 100 µM (inactive); in test [15] it was > 100 µM (inactive); in test [16], 34.4 µM (inactive); in test [17] it was > 100 µM (inactive); in [18], > 100 µM (inactive).
Consider `CC1=NN(C(=O)c2ccncc2)C(=O)C1`, for which the GI50 in test [1] is > 100 µM (inactive); in test [2], > 100 µM (inactive); in [3] it was > 100 µM (inactive); in test [4], > 100 µM (inactive); in [5], 32.2 µM (inactive); in [6], > 100 µM (inactive). The GI50 in [7] was above 100 µM; in [8], > 100 µM (inactive); in [9], > 100 µM (inactive); in test [10], > 100 µM (inactive); in [11] it was > 100 µM (inactive); in [12], > 100 µM (inactive). Also, the GI50 in [13], in test [14], in [15], in test [16], in test [17] and in test [20] was > 100 µM (inactive) throughout. Further, the GI50 in test [18] is > 100 µM (inactive).
Consider `COc1ccc(C2=C(N)c3c(OC)cccc3C2=O)cc1`, for which the GI50 in test [1] was 22.5 µM (inactive); in test [2], 15 µM (inactive); in test [3] it was 60.3 µM (inactive); in test [4], > 100 µM (inactive); in test [5] it was 96.6 µM (inactive); in [6] it was > 10 µM (inactive). Further, the GI50 in test [7] is above 100 µM; in test [8], 60.5 µM (inactive); in test [9], 86.1 µM (inactive); in [12], 99.5 µM (inactive); in test [13], > 100 µM (inactive); in test [14] it was > 100 µM (inactive). In addition, the GI50 in [15] was > 100 µM (inactive); in [16], 85.1 µM (inactive); in test [19], > 100 µM (inactive); in test [17] it was > 100 µM (inactive); in test [20], > 100 µM (inactive); in test [18], 97.5 µM (inactive).
Consider `COc1ccc(C[C@H]2COC(=O)[C@@H]2Cc2cc(OC)c(OC)c(OC)c2)cc1OC`, for which the GI50 in test [1] is > 100 µM (inactive); in test [2], > 100 µM (inactive); in [3], > 94.6 µM (inactive); in test [4] it was > 100 µM (inactive); in test [5], > 87.3 µM (inactive); in test [6] it was > 75 µM (inactive). Also, the GI50 in test [7] was above 100 µM; in test [8] it was > 64 µM (inactive); in test [9] it was > 100 µM (inactive); in test [10] it was > 68.7 µM (inactive); in test [11] it was 26.2 µM (inactive); in test [12], > 74.1 µM (inactive). For the same molecule, the GI50 in [13] is 48.2 µM (inactive); in test [15], > 88.3 µM (inactive); in test [16] it was > 100 µM (inactive); in test [19] it was 17.1 µM (inactive); in test [17] it was > 81.1 µM (inactive); in test [20], > 89.1 µM (inactive). Further, in test [18], the GI50 is 90.4 µM (inactive).
As for `COc1ccc(CC(C)NCC(O)c2ccc(O)c(NC=O)c2)cc1` (configuration not stated), the GI50 is > 100 µM (inactive) in [1]; > 100 µM (inactive) in test [2]; > 100 µM (inactive) in test [3]; > 100 µM (inactive) in test [4]; < 0.01 µM (active) in test [5]; > 100 µM (inactive) in test [6]. The GI50 is above 100 µM in test [7]; > 100 µM (inactive) in [8]; 33.9 µM (inactive) in [9]; > 100 µM (inactive) in [10]; > 100 µM (inactive) in [11]; > 100 µM (inactive) in test [12]. The GI50 in test [13], in test [15], in [16], in [19], in test [17] and in test [20] was > 100 µM (inactive) in each case. Also, in test [18], the GI50 was > 100 µM (inactive).
Regarding `CCOn1c(C2(CC3CCN(C(=O)c4ccccc4)CC3)OCCO2)cc2ccccc21`, the GI50 was 15.1 µM (inactive) in [1]; 18.7 µM (inactive) in [2]; 15 µM (inactive) in [3]; 18.2 µM (inactive) in test [4]; 15.5 µM (inactive) in test [5]; 11.1 µM (inactive) in [6]. In addition, the GI50 in test [7] was 22.5 µM; in test [8], 14.8 µM (inactive); in [9] it was 15.8 µM (inactive); in [10] it was 19.3 µM (inactive); in [11] it was 11.9 µM (inactive); in [12], 15.7 µM (inactive). Besides, the GI50 in [13] was 12.6 µM (inactive); in [15] it was 16.8 µM (inactive); in test [16], 16.5 µM (inactive); in [19], 8.51 µM (inactive); in [17], 14.3 µM (inactive); in [20], 16.4 µM (inactive). Besides, the GI50 in test [18] is 16.7 µM (inactive).
As for `O=C1CSC(=O)/C1=C\NNc1nc2ccccc2o1`, the GI50 in test [1] is 51.8 µM (inactive); in test [2], 11.4 µM (inactive); in [4], 31.5 µM (inactive); in test [5], 30.9 µM (inactive); in [6] it was 29.7 µM (inactive); in test [7], 12 µM. Besides, the GI50 in test [8] was 59.3 µM (inactive); in test [9], 19.9 µM (inactive); in test [11], 14.4 µM (inactive); in test [12], 22.4 µM (inactive); in [13], 1.09 µM (active); in test [14], 0.586 µM (active). The GI50 in [15] is 37.2 µM (inactive); in [16], 40.2 µM (inactive); in test [17] it was 65.9 µM (inactive); in [20], 17.4 µM (inactive); in [18] it was 19.3 µM (inactive).
As for `COc1ccc2c(c1)C1=NCCN(C)c3ccc([N+](=O)[O-])c(c31)N2`, the GI50 in test [1] was 0.785 µM (active); in [2], 0.423 µM (active); in test [3], 1.41 µM (inactive); in test [4], 1.04 µM (active); in test [5] it was 0.565 µM (active); in test [6], 2.54 µM (inactive). The GI50 in test [7] was 0.46 µM; in [8], 1.15 µM (inactive); in [9], 1.02 µM (active); in [10], 0.635 µM (active); in [11], 1.45 µM (inactive); in test [12], 0.431 µM (active). Moreover, the GI50 in test [13] is 5.73 µM (inactive); in test [14], 3.16 µM (inactive); in [16], 0.43 µM (active); in [17], 0.748 µM (active); in test [20], 1.36 µM (inactive); in test [18], 1 µM (active).
Turning to `[N-]=[N+]=NC1=C(N=[N+]=[N-])c2cccc3cccc(c23)C1=O`, the GI50 in [1] is 49.7 µM (inactive); in test [2], > 100 µM (inactive); in test [3], 68.2 µM (inactive); in test [4], > 100 µM (inactive); in [5], 60.1 µM (inactive); in [6], > 100 µM (inactive). Further, the GI50 was above 100 µM in test [7]; > 100 µM (inactive) in [8]; > 100 µM (inactive) in test [9]; > 100 µM (inactive) in test [10]; > 100 µM (inactive) in [11]; > 100 µM (inactive) in [12]. Besides, the GI50 is 67.9 µM (inactive) in [13]; > 100 µM (inactive) in test [15]; > 100 µM (inactive) in [16]; > 100 µM (inactive) in test [19]; > 100 µM (inactive) in test [17]; > 100 µM (inactive) in [20]. Further, the GI50 in test [18] is > 100 µM (inactive).
